Measured values published in US9802918B2, “Pyridineamine compounds useful as Pim kinase inhibitors” (Incyte Corporation, priority 2015, dated 2017).

Experiments:
Format in all cases: biochemical
[1] = biological target: Pim-1 (Homo sapiens (Human), UniProt P11309); assay: Pim-1 kinase assay; settings: 1 mM ATP; read-out: Pim1 IC50
Experimental: Supplementation of the STOP buffer with beads and stopping the reactions were done under reduced light. Prior to the stopping reactions STOP buffer with beads was preincubated for 1 h in the dark at room temperature. After stopping the reactions, plates were incubated for 1 h in the dark at room temperature before reading on a PHERAstar FS plate reader (BMG Labtech) under reduced light.

[2] = biological target: Pim-2 (Homo sapiens (Human), UniProt Q9P1W9); assay: Pim-2 kinase assay; settings: 1 mM ATP; read-out: Pim2 IC50
How it was run: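 Pim-2 (1 nM) with fluorescein-CREBtide ([…]) and 1 mM ATP in Tris pH 7.5, MgCl2, DTT buffer, 2 h at 25 °C. Stopped with EDTA plus Tb-anti-CREB pSer133 antibody; phosphorylation read by TR-FRET after 30 min.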

[3] = biological target: Pim-3 (Homo sapiens (Human), UniProt Q86V86); assay: Pim-3 kinase assay; settings: 1 mM ATP; read-out: Pim3 IC50
How it was run: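 Human Pim-3 at 1.25 pM phosphorylated […] biotin-BAD peptide with 1 mM ATP for 1 h at 25° C, in pH 7.5 Tris buffer with 5 mM MgCl2 and 5 mM DTT. Reactions were stopped with EDTA buffer containing phospho-Bad (Ser112) antibody and AlphaScreen donor/acceptor beads. Plates were read after 1 h dark incubation at room temperature.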

Sequence of Pim-1 (P11309 whole entry): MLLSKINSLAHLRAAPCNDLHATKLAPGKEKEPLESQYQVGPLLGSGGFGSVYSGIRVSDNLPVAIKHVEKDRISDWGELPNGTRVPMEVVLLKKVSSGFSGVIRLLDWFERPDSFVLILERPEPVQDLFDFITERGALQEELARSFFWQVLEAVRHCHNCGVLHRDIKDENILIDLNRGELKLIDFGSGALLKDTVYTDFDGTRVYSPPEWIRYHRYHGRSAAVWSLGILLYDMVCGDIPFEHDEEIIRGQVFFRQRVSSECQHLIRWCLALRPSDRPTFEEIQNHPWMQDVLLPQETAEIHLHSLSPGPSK
Sequence of Pim-2 (Q9P1W9 whole entry): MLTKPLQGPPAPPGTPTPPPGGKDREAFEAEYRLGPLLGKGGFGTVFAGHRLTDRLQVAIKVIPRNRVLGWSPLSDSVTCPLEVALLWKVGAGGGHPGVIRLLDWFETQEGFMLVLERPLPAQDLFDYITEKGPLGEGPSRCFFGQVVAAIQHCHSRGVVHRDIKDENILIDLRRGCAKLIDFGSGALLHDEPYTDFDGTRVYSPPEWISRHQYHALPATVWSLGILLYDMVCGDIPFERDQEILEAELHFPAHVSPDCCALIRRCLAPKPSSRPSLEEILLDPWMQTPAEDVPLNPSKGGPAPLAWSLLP

Row | SMILES | IC50 [1] [nM] | IC50 [2] [nM] | IC50 [3] [nM]
1 | COC1(c2cc(F)c(-c3nc(CNc4cnccc4N4C[C@@H](N)[C@H](O)[C@@H](C)C4)ccc3F)c(F)c2)CCOCC1 [Example 59, (3R,4R,5S)-3-Amino-1-{3-[({6-[2,6-difluoro-4-(4-methoxytetrahydro-2H-pyran-4-yl)phenyl]-5-fluoropyridin-2-yl}methyl)amino]pyridin-4-yl}-5-methylpiperidin-4-ol] | < 10 | 100 to 1000 | ≤ 10
2 | COC1(c2cc(F)c(-c3nc(CNc4cnccc4N4C[C@H](C)C[C@H](N)C4)ccc3F)c(F)c2)CCOCC1 [Example 60, 4-[(3S,5R)-3-Amino-5-methylpiperidin-1-yl]-N-({6-[2,6-difluoro-4-(4-methoxytetrahydro-2H-pyran-4-yl)phenyl]-5-fluoropyridin-2-yl}methyl)pyridin-3-amine] | < 10 | 100 to 1000 | ≤ 10
3 | C[C@H]1CN(c2ccncc2NCc2ccc(F)c(-c3c(F)cc(C4(F)CCOCC4)cc3F)n2)C[C@@H](N)[C@@H]1O [Example 61, (3R,4R,5S)-3-Amino-1-{3-[({6-[2,6-difluoro-4-(4-fluorotetrahydro-2H-pyran-4-yl)phenyl]-5-fluoropyridin-2-yl}methyl)amino]pyridin-4-yl}-5-methylpiperidin-4-ol] | < 10 | ≤ 100 | ≤ 10
4 | C[C@@H]1C[C@H](N)CN(c2ccncc2NCc2ccc(F)c(-c3c(F)cc(C4(F)CCOCC4)cc3F)n2)C1 [Example 62, 4-[(3S,5R)-3-Amino-5-methylpiperidin-1-yl]-N-({6-[2,6-difluoro-4-(4-fluorotetrahydro-2H-pyran-4-yl)phenyl]-5-fluoropyridin-2-yl}methyl)pyridin-3-amine] | < 10 | ≤ 100 | ≤ 10
5 | C[C@H]1CN(c2ccncc2NCc2ccc(F)c(-c3c(F)cc(C4CCOCC4)cc3F)n2)C[C@@H](N)[C@@H]1O [Example 63, (3R,4R,5S)-3-Amino-1-{3-[({6-[2,6-difluoro-4-(tetrahydro-2H-pyran-4-yl)phenyl]-5-fluoropyridin-2-yl}methyl)amino]pyridin-4-yl}-5-methylpiperidin-4-ol] | < 10 | ≤ 100 | ≤ 10
6 | C[C@@H]1C[C@H](N)CN(c2ccncc2NCc2ccc(F)c(-c3c(F)cc(C4CCOCC4)cc3F)n2)C1 [Example 64, 4-[(3S,5R)-3-Amino-5-methylpiperidin-1-yl]-N-({6-[2,6-difluoro-4-(tetrahydro-2H-pyran-4-yl)phenyl]-5-fluoropyridin-2-yl}methyl)pyridin-3-amine] | < 10 | ≤ 100 | ≤ 10
7 | N[C@H]1C[C@@H](C(F)(F)F)CN(c2ccncc2NCc2ccc(F)c(-c3c(F)cc(C4CCOCC4)cc3F)n2)C1 [Example 65, 4-((3S,5R)-3-Amino-5-(trifluoromethyl)piperidin-1-yl)-N-((6-(2,6-difluoro-4-(tetrahydro-2H-pyran-4-yl)phenyl)-5-fluoropyridin-2-yl)methyl)pyridin-3-amine] | < 10 | ≤ 100 | ≤ 10
8 | C[C@@H]1C[C@H](N)C[C@H](c2ccncc2NCc2ccc(F)c(-c3c(F)cccc3F)n2)C1 [Example 66, 4-[(1R,3S,5S)-3-Amino-5-methylcyclohexyl]-N-{[6-(2,6-difluorophenyl)-5-fluoropyridin-2-yl]methyl}pyridin-3-amine] | < 10 | 100 to 1000 | ≤ 10
9 | C[C@@H]1C[C@H](N)C[C@H](c2ccncc2NCc2ccc(F)c(-c3c(F)cc(C4(O)CCC4)cc3F)n2)C1 [Example 67, 1-(4-{6-[({4-[(1R,3S,5S)-3-Amino-5-methylcyclohexyl]pyridin-3-yl}amino)methyl]-3-fluoropyridin-2-yl}-3,5-difluorophenyl)cyclobutanol] | < 10 | 100 to 1000 | ≤ 10
10 | C[C@@H]1C[C@H](N)C[C@H](c2ccncc2NCc2ccc(F)c(-c3c(F)cc(N4CCOCC4)cc3F)n2)C1 [Example 68, 4-[(1R,3S,5S)-3-Amino-5-methylcyclohexyl]-N-{[6-(2,6-difluoro-4-morpholin-4-ylphenyl)-5-fluoropyridin-2-yl]methyl}pyridin-3-amine] | < 10 | 100 to 1000 | ≤ 10
11 | C[C@@H]1C[C@H](N)CN(c2ccncc2NCc2nc(-c3c(F)cccc3F)sc2N)C1 [Example 69, N-{[5-Amino-2-(2,6-difluorophenyl)-1,3-thiazol-4-yl]methyl}-4-[(3S,5R)-3-amino-5-methylpiperidin-1-yl]pyridin-3-amine] | < 10 | 1000 to 10000 | ≤ 10
12 | C[C@@H]1C[C@H](N)CN(c2ccncc2NCc2ccc(F)c(-c3c(F)cc(N4CC[C@@H](F)C4)cc3F)n2)C1 [Example 70, 4-[(3S,5R)-3-Amino-5-methylpiperidin-1-yl]-N-[(6-{2,6-difluoro-4-[(3R)-3-fluoropyrrolidin-1-yl]phenyl}-5-fluoropyridin-2-yl)methyl]pyridin-3-amine] | < 10 | 100 to 1000 | ≤ 10
13 | C[C@@H]1C[C@H](N)CN(c2ccncc2NCc2ccc(F)c(-c3c(F)cc(N4CCCC(F)C4)cc3F)n2)C1 (stereo partly drawn) [Example 71, 4-[(3S,5R)-3-Amino-5-methylpiperidin-1-yl]-N-({6-[2,6-difluoro-4-(3-fluoropiperidin-1-yl)phenyl]-5-fluoropyridin-2-yl}methyl)pyridin-3-amine] | < 10 | ≤ 100 | ≤ 10
14 | C[C@@H]1C[C@H](N)CN(c2ccncc2NCc2ccc(F)c(-c3c(F)cc(N4CC(C)(O)C4)cc3F)n2)C1 [Example 72, 1-(4-{6-[({4-[(3S,5R)-3-Amino-5-methylpiperidin-1-yl]pyridin-3-yl}amino)methyl]-3-fluoropyridin-2-yl}-3,5-difluorophenyl)-3-methylazetidin-3-ol] | < 10 | ≤ 100 | ≤ 10
15 | C[C@H]1CN(c2ccncc2NCc2ccc(F)c(-c3c(F)cc(O[C@@H]4CCOC4)cc3F)n2)C[C@@H](N)[C@@H]1O [Example 73, (3R,4R,5S)-3-Amino-1-(3-{[(6-{2,6-difluoro-4-[(3R)-tetrahydrofuran-3-yloxy]phenyl}-5-fluoropyridin-2-yl)methyl]amino}pyridin-4-yl)-5-methylpiperidin-4-ol] | < 10 | ≤ 100 | ≤ 10
16 | C[C@@H]1C[C@H](N)CN(c2ccncc2NCc2ccc(F)c(-c3c(F)cc(O[C@@H]4CCOC4)cc3F)n2)C1 [Example 74, 4-[(3S,5R)-3-Amino-5-methylpiperidin-1-yl]-N-[(6-{2,6-difluoro-4-[(3R)-tetrahydrofuran-3-yloxy]phenyl}-5-fluoropyridin-2-yl)methyl]pyridin-3-amine] | < 10 | ≤ 100 | ≤ 10
17 | C[C@H]1CN(c2ccncc2NCc2ccc(F)c(-c3c(F)cc(O[C@H]4CCOC4)cc3F)n2)C[C@@H](N)[C@@H]1O [Example 75, (3R,4R,5S)-3-Amino-1-(3-{[(6-{2,6-difluoro-4-[(3S)-tetrahydrofuran-3-yloxy]phenyl}-5-fluoropyridin-2-yl)methyl]amino}pyridin-4-yl)-5-methylpiperidin-4-ol] | < 10 | ≤ 100 | ≤ 10
18 | C[C@@H]1C[C@H](N)CN(c2ccncc2NCc2ccc(F)c(-c3c(F)cc(O[C@H]4CCOC4)cc3F)n2)C1 [Example 76, 4-[(3S,5R)-3-Amino-5-methylpiperidin-1-yl]-N-[(6-{2,6-difluoro-4-[(3S)-tetrahydrofuran-3-yloxy]phenyl}-5-fluoropyridin-2-yl)methyl]pyridin-3-amine] | < 10 | ≤ 100 | ≤ 10
19 | C[C@H]1CN(c2ccncc2NCc2ccc(F)c(-c3c(F)cc(OC4CCOCC4)cc3F)n2)C[C@@H](N)[C@@H]1O [Example 77, (3R,4R,5S)-3-Amino-1-{3-[({6-[2,6-difluoro-4-(tetrahydro-2H-pyran-4-yloxy)phenyl]-5-fluoropyridin-2-yl}methyl)amino]pyridin-4-yl}-5-methylpiperidin-4-ol] | < 10 | ≤ 100 | ≤ 10
20 | C[C@@H]1C[C@H](N)CN(c2ccncc2NCc2ccc(F)c(-c3c(F)cc(OC4CCOCC4)cc3F)n2)C1 [Example 78, 4-[(3S,5R)-3-Amino-5-methylpiperidin-1-yl]-N-({6-[2,6-difluoro-4-(tetrahydro-2H-pyran-4-yloxy)phenyl]-5-fluoropyridin-2-yl}methyl)pyridin-3-amine] | < 10 | ≤ 100 | ≤ 10
21 | COc1cc(F)c(-c2nc(CNc3cnccc3N3C[C@@H](N)[C@H](O)[C@@H](C)C3)ccc2F)c(F)c1 [Example 82, (3R,4R,5S)-3-Amino-1-[3-({[6-(2,6-difluoro-4-methoxyphenyl)-5-fluoropyridin-2-yl]methyl}amino)pyridin-4-yl]-5-methylpiperidin-4-ol] | < 10 | ≤ 100 | ≤ 10
22 | COc1cc(F)c(-c2nc(CNc3cnccc3N3C[C@H](C)C[C@H](N)C3)ccc2F)c(F)c1 [Example 83, 4-[(3S,5R)-3-Amino-5-methylpiperidin-1-yl]-N-{[6-(2,6-difluoro-4-methoxyphenyl)-5-fluoropyridin-2-yl]methyl}pyridin-3-amine] | < 10 | ≤ 100 | ≤ 10
